# Results from US20150209379A1, “TREATMENT OF PROSTATE CANCER AND HEMATOLOGIC NEOPLASMS” (THOMAS JEFFERSON UNIVERSITY, priority 2012, published 2015).
# Target: T1, Stat5a (Homo sapiens, UniProt P42229)
# T1 sequence (P42229 1-794): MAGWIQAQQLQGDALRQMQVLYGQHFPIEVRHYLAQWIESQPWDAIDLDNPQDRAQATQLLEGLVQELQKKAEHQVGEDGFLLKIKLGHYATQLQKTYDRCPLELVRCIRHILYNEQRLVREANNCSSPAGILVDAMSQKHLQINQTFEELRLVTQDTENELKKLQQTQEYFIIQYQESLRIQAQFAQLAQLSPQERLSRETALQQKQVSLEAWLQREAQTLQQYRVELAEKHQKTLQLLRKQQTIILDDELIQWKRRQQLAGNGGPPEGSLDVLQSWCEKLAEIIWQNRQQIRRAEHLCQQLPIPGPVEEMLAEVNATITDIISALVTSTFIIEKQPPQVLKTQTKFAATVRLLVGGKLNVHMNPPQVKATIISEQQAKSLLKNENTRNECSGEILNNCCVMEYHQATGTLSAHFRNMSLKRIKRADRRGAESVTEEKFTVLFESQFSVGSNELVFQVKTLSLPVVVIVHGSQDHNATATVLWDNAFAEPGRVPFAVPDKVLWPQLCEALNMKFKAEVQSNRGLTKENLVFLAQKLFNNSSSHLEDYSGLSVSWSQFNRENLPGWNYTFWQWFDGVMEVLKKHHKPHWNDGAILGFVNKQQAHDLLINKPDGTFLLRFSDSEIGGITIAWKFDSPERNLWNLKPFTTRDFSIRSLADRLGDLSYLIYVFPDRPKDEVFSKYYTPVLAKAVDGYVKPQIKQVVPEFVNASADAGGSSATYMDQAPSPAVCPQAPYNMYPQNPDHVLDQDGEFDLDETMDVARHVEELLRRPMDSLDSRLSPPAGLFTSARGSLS
# Test: Stat5a dimerization (FLAG-/MYC-tagged Stat5a co-immunoprecipitation) in PC-3 cells
# Format: cell-based
# Design: expressed in transfected cells; host or cells: PC-3 human prostate cancer cells
# Settings: 2 hours pretreatment, then hPrl 10 nM 30 minutes
# Description: (§1) FLAG-tagged Stat5a and MYC-tagged Stat5a were generated by standard molecular biology cloning techniques. Plasmid pCMV3-FLAG-Stat5a, pCMV3-MYC-Stat5a and pPr1R were co-transfected using FuGENE6 (Roche) into PC-3 cells (2 μg of each plasmid per 1×10^7 cells). The cells were starved for 20 hours, pretreated with test compound for 2 hours, then stimulated with hPrl (10 nM) in RPMI 1640 without serum for 30 minutes. The cell lysates were immunoprecipitated with 25 μl anti-FLAG M2 […] affinity gel (2 μg/ml, Sigma), anti-MYC pAb (1 μg/ml, Upstate) or normal rabbit serum (NRS). The primary antibodies were used in the immunoblottings at the following concentrations: anti-FLAG pAb (1:1000; Stratagene), anti-MYC mAb (1:1000; Sigma), anti-Stat5a/b mAb (1:250) (Transduction Laboratories) detected by horseradish peroxidase-conjugated secondary antibodies. The results are shown in FIG. 3A for Compound 1 and FIG. 3B for Compound 2.
# Lanes 1, 2, 4, 6 and 8 represent cells stimulated with human prolactin (Prl) for 30 minutes which induces dimerization of Stat5. Two hours prior to Prl-stimulation, the cells had been treated with DMSO (lanes 1-4), the control compound C5 (lanes 7 and 8) and either Compound 1 (lanes 5 and 6 in FIG. 3A) or Compound 2 (lanes 5 and 6 in FIG. 3B). […] It should be noted the drug effect in this study was not due to cell apoptosis induction, as the treatment time was only 2 hours. Treatment of at least 48 hours is required for the compound to induce prostate cancer cell apoptosis.
# as §1, with “and pPrlR” for “and pPr1R”, “hours, pre-treated” for “hours, pretreated”, “with NBPP” for “with test compound”, “2 h,” for “2 hours,”, “antibodies.” for “antibodies. The results are shown in FIG. 3A for Compound 1 and FIG. 3B for Compound 2.”
# Lanes 1, 2, 4, 6 and 8 represent cells stimulated with human prolactin (Prl) for 30 minutes which induces dimerization of Stat5. Two hours prior to Prl-stimulation, the cells had been treated with DMSO (lanes 1-4), the control compound C5 (lanes 5 and 6) or NBPP (lanes 7 and 8) to test whether the Stat5a/b-inhibitor compound, NBPP, would be able to inhibit dimerization of StatS. […] It should be noted the drug effect in this study was not due to cell apoptosis induction, as the treatment time was only 2 hours. Treatment of at least 48 hours is required for the compound to induce prostate cancer cell apoptosis.
# FLAG-tagged Stat5a and MYC-tagged Stat5a were generated by standard molecular biology cloning techniques.as follows. […] The primary antibodies were used in the immunoblottings at the following concentrations: anti-FLAG pAb (1:1000; Stratagene), anti-MYC mAb (1:1000; Sigma), anti-Stat5a/b mAb (1:250) (Transduction Laboratories) detected by horseradish peroxidase-conjugated secondary antibodies. […]
smiles,measurement,value
"Nc1nc(SCc2cccnc2)[nH]c(=O)c1NC(=O)c1ccco1 [Compound C5, reference compound]",effect on Stat5a dimerization,did not inhibit dimerization of Stat5a
